Data published in patent US9822115B2, “Nitrogen containing compounds and their use as antibacterial agents” (WOCKHARDT LIMITED, priority 2014, dated 2017).
≈ marks a conversion by molar mass, not a printed value. Where two headings read alike, the source gives them in different places.

Key:
[1] = system: T1, Class C beta-lactamase, E. coli M50 (CMY/DHA); assay type: biochemical; conditions: read-out: Beta-lactamase enzyme inhibition IC50
T1 construct: no borders, tags or purification printed
Description: (§1) Determination of enzyme inhibition activity: Concentration of the inhibitor required to inhibit 50% of enzymatic activity was measured by adding a chromogenic substrate, Nitrocefin (100 uM, 5 min) to the preincubated mixture of crude enzyme and the agents (37° C., 10 min). Absorbance was measured at 485 nm by UV-spectrophotometer. The IC50 was calculated by plotting absorbance against concentration through Sigmoidal dose response curve using Graph Pad software.
(§2) The enzyme inhibition was expressed as IC50.

[2] = target: T2, Class D beta-lactamase, A. baumannii NCTC 13301 (OXA 23) (Acinetobacter baumannii, UniProt Q9L4P2); assay: Beta-lactamase enzyme inhibition (nitrocefin, crude enzyme); assay type: biochemical; conditions: Class D A. baumannii NCTC 13301 (OXA 23); read-out: Beta-lactamase enzyme inhibition IC50
T2 construct: preincubated mixture of crude enzyme and the agents; endogenous in cells; host or cells: A. baumannii NCTC 13301
Description: as §1, §2

[3] = system: E. coli NCTC 13353 (CTX-M15, OXA-1); assay: Antibacterial activity, MIC by agar dilution (CLSI); assay type: cell-based
Description: (§3) The biological activity of representative compounds according to the invention against various bacterial strains was investigated. In a typical study, overnight grown bacterial cultures were diluted appropriately and inoculated on the agar media containing doubling dilutions of the test compounds. Observations for growth or no growth was performed after 16-20 hours of incubation at 35±2° C. in the ambient air. The overall procedure was performed as per Clinical and Laboratory Standards Institute (CLSI) recommendations, (Clinical and Laboratory Standards Institute (CLSI), Performance Standards for Antimicrobial Susceptibility Testing, 20th Informational Supplement, M07-A9, Volume 32, No. 2, 2012). Molten Mueller Hinton Agar (BD, USA) containing serial dilutions of each antibacterial agent were poured on to the plates and allowed to solidify. Appropriate suspensions from the freshly grown cultures were prepared in normal saline so that about 10^4 CFU/spot of the organism was delivered on to the drug containing agar plates using automated multipoint inoculator (Mast, UK). The plates were incubated in Biochemical oxygen demand (BOD) incubator at 37° C. for 18 hours and then examined for growth.
Table 2 details the antibacterial activity of representative compounds according to invention, against various Multi Drug Resistant (MDR) Gram-negative bacterial strains. The strains selected for study included E. coli NCTC 13353 producing CTX-M15 and OXA-1 beta-lactamase enzymes; K. pneumoniae H521 producing KPC, SHV, TEM beta-lactamase enzymes; and K. pneumoniae S48 producing NDM, SHV, TEM beta-lactamase enzymes. The activities are expressed as Minimum Inhibitory Concentrations (MICs) (mcg/ml).

[4] = system: K. pneumoniae H521 (KPC, SHV, TEM); assay: as above; assay type: cell-based
Description: as §3
(§4) The strains selected for study included E. coli NCTC 13353 producing CTX-M15 and OXA-1 beta-lactamase enzymes; K. pneumoniae H521 producing KPC, SHV, TEM beta-lactamase enzymes; and K. pneumoniae S48 producing NDM, SHV, TEM beta-lactamase enzymes. The activities are expressed as Minimum Inhibitory Concentrations (MICs) (mcg/ml).

[5] = target: T3, Class A beta-lactamase, K. pneumoniae ATCC 700603 (SHV 18) (Klebsiella pneumoniae, UniProt P0AD64, E235K/G234A/R39S); assay: biochemical
T3 construct: preincubated mixture of crude enzyme and the agents; endogenous in cells; host or cells: K. pneumoniae ATCC 700603
Description: as §1, §2

[6] = system: K. pneomoniae S48 (NDM, SHV, TEM); assay: Antibacterial activity, MIC by agar dilution (CLSI); assay type: cell-based, K. pneumoniae
Description: as §3, §4

[7] = Escherichia coli, NCTC13353, Table 2, E. Coli NCTC 13353 (CTX-M15, OXA-1), read-out: MIC
[8] = Klebsiella pneumoniae, Table 2, K. pneumoniae H521 (KPC, SHV, TEM), read-out: MIC
[9] = Klebsiella pneumoniae, Table 2, K. pneomoniae S48 (NDM, SHV, TEM), read-out: MIC
[10] = Escherichia coli, NCTC13353, 18 h, Table 2, E. Coli NCTC 13353 (CTX-M15, OXA-1), read-out: MIC
[11] = Klebsiella pneumoniae, 18 h, Table 2, K. pneumoniae H521 (KPC, SHV, TEM), read-out: MIC
[12] = Klebsiella pneumoniae, 18 h, Table 2, K. pneomoniae S48 (NDM, SHV, TEM), read-out: MIC
[13] = Table 2, E. Coli NCTC 13353 (CTX-M15, OXA-1)
[14] = Table 2, K. pneomoniae S48 (NDM, SHV, TEM)

T2 sequence (Q9L4P2 18-273): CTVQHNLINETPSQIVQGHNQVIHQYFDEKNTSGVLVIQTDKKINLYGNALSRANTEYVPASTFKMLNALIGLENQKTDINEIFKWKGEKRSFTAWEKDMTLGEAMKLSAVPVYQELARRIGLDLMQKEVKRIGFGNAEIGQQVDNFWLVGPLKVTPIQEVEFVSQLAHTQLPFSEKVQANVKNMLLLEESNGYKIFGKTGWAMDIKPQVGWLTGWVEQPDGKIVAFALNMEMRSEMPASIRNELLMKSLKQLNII
T3 sequence (P0AD64 22-286 R39S/G234A/E235K): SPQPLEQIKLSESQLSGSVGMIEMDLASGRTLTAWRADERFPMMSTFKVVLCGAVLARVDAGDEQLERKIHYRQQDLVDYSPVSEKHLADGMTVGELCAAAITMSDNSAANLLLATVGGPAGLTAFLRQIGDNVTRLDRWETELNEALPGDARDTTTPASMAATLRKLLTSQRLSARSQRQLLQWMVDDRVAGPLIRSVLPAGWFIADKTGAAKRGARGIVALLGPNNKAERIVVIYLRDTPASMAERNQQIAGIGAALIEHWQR

Compound: O=C(O)[C@H]1/C(=C/CO)O[C@@H]2CC(=O)N21 [Clavulanic acid, clavulanic acid, reference compound]
- IC50 [1]: > 10000 nM

Compound: Nc1ccc(CC(=O)NNC(=O)[C@@H]2CC[C@@H]3CN2C(=O)N3OS(=O)(=O)O)cc1 [Example 11, (2S,5R)-sulfuric acid mono-[2-(N′-(4-aminophenyl-acetyl)-hydrazinocarbonyl)-7-oxo-1,6-diaza-bicyclo[3.2.1]oct-6-yl]ester]
- IC50 [2]: 408 nM
- IC50 [1]: 10 nM
- MIC ([3]; Escherichia coli, NCTC13353): 0.5 µg/mL (≈ 1.21 µM)
- MIC ([4]; Klebsiella pneumoniae): 1 µg/mL (≈ 2.42 µM)
- IC50 [5]: 32 nM
- MIC ([6]; Klebsiella pneumoniae): 1 µg/mL (≈ 2.42 µM)

Compound: Nc1ccc(CC(=O)NNC(=O)[C@@H]2CC[C@@H]3CN2C(=O)N3OS(=O)(=O)O)c(F)c1 [Example 17, (2S,5R)-sulfuric acid mono-[2-(N′-(4-amino-2-fluorophenyl-acetyl)-hydrazinocarbonyl)-7-oxo-1,6-diaza-bicyclo[3.2.1]oct-6-yl]ester]
- IC50 [2]: 194 nM
- IC50 [1]: 14 nM
- MIC [3, 7]: 1 µg/mL (≈ 2.32 µM)
- MIC [4, 8]: 4 µg/mL (≈ 9.27 µM)
- MIC [6, 9]: 1 µg/mL (≈ 2.32 µM)

Compound: Nc1ccccc1CC(=O)NNC(=O)[C@@H]1CC[C@@H]2CN1C(=O)N2OS(=O)(=O)O [Example 21, (2S,5R)-sulfuric acid mono-[2-(N′-(2-aminophenyl-acetyl)-hydrazinocarbonyl)-7-oxo-1,6-diaza-bicyclo[3.2.1]oct-6-yl]ester]
- IC50 [2]: 4510 nM
- IC50 [1]: 34 nM
- MIC ([3]; Escherichia coli, NCTC13353): 16 µg/mL (≈ 38.7 µM)
- MIC ([4]; Klebsiella pneumoniae): 16 µg/mL (≈ 38.7 µM)
- IC50 [5]: 35 nM
- MIC ([6]; Klebsiella pneumoniae): 16 µg/mL (≈ 38.7 µM)

Compound: C[C@H](N)C(=O)Oc1ccc(CC(=O)NNC(=O)[C@@H]2CC[C@@H]3CN2C(=O)N3OS(=O)(=O)O)cc1 [Example 23, (S)-2-amino-propionic acid 4-{2-oxo-2-[N′-((2S,5R)-7-oxo-6-sulphooxy-1,6-diaza-bicyclo[3.2.1]octane-2-carbonyl)-hydrazino]ethyl}-phenyl ester]
- IC50 [2]: 240 nM
- IC50 [1]: 23 nM
- MIC [3, 7]: 0.5 µg/mL (≈ 1.03 µM)
- MIC [4, 8]: 2 µg/mL (≈ 4.12 µM)
- IC50 [5]: 3 nM
- MIC [6, 9]: 0.5 µg/mL (≈ 1.03 µM)

Compound: CC(C)[C@H](N)C(=O)Oc1ccc(CC(=O)NNC(=O)[C@@H]2CC[C@@H]3CN2C(=O)N3OS(=O)(=O)O)cc1 [Example 24, (S)-2-amino-3-methyl-butyric acid 4-{2-oxo-2-[N′-((2S,5R)-7-oxo-6-sulphooxy-1,6-diaza-bicyclo[3.2.1]octane-2-carbonyl)-hydrazino]ethyl}-phenyl ester]
- IC50 [2]: 151 nM
- IC50 [1]: 5 nM
- MIC [3, 7]: 1 µg/mL (≈ 1.95 µM)
- MIC [4, 8]: 4 µg/mL (≈ 7.79 µM)
- IC50 [5]: 2 nM
- MIC [6, 9]: 0.5 µg/mL (≈ 0.974 µM)

Compound: O=C(Cc1ccc(OC(=O)[C@@H]2CCCN2)cc1)NNC(=O)[C@@H]1CC[C@@H]2CN1C(=O)N2OS(=O)(=O)O [Example 25, (S)-pyrrolidine-2-carboxylic acid 4-{2-oxo-2-[N′-((2S,5R)-7-oxo-6-sulphooxy-1,6-diaza-bicyclo[3.2.1]octane-2-carbonyl)-hydrazino]ethyl}-phenyl ester]
- IC50 [2]: 329 nM
- IC50 [1]: 11 nM
- MIC [3, 7]: 0.5 µg/mL (≈ 0.977 µM)
- MIC [4, 8]: 1 µg/mL (≈ 1.95 µM)
- IC50 [5]: 16 nM
- MIC [6, 9]: 1 µg/mL (≈ 1.95 µM)

Compound: NCCOc1ccc(CC(=O)NNC(=O)[C@@H]2CC[C@@H]3CN2C(=O)N3OS(=O)(=O)O)cc1 [Example 30, (2S,5R)-sulfuric acid mono-[2-(N′-{2-[4-(2-amino-ethoxy)-phenyl]-acetyl}-hydrazinocarbonyl)-7-oxo-1,6-diaza-bicyclo[3.2.1]oct-6-yl]ester]
- IC50 [2]: 451 nM
- IC50 [1]: 36 nM
- MIC [3, 7]: 0.5 µg/mL (≈ 1.09 µM)
- MIC [4, 8]: 2 µg/mL (≈ 4.37 µM)
- IC50 [5]: 7 nM
- MIC [6, 9]: 0.5 µg/mL (≈ 1.09 µM)

Compound: NCCOc1cccc(CC(=O)NNC(=O)[C@@H]2CC[C@@H]3CN2C(=O)N3OS(=O)(=O)O)c1 [Example 32, (2S,5R)-sulfuric acid mono-[2-(N′-{2-[3-(2-amino-ethoxy)-phenyl]-acetyl}-hydrazinocarbonyl)-7-oxo-1,6-diaza-bicyclo[3.2.1]oct-6-yl]ester]
- IC50 [2]: 1770 nM
- IC50 [1]: 33 nM
- MIC [3, 7]: 0.5 µg/mL (≈ 1.09 µM)
- MIC [4, 8]: 0.5 µg/mL (≈ 1.09 µM)
- IC50 [5]: 76 nM
- MIC [6, 9]: 0.5 µg/mL (≈ 1.09 µM)

Compound: NCCCOc1ccccc1CC(=O)NNC(=O)[C@@H]1CC[C@@H]2CN1C(=O)N2OS(=O)(=O)O [Example 34, (2S,5R)-sulfuric acid mono-[2-(N′-{2-[2-(3-amino-propoxy)-phenyl]-acetyl}-hydrazinocarbonyl)-7-oxo-1,6-diaza-bicyclo[3.2.1]oct-6-yl]ester]
- IC50 [2]: 3810 nM
- IC50 [1]: 60 nM
- MIC [3, 7]: 2 µg/mL (≈ 4.24 µM)
- MIC [4, 8]: 2 µg/mL (≈ 4.24 µM)
- IC50 [5]: 79 nM
- MIC [6, 9]: 2 µg/mL (≈ 4.24 µM)

Compound: NCCCOc1cccc(CC(=O)NNC(=O)[C@@H]2CC[C@@H]3CN2C(=O)N3OS(=O)(=O)O)c1 [Example 35, (2S,5R)-sulfuric acid mono-[2-(N′-{2-[3-(3-amino-propoxy)-phenyl]-acetyl}-hydrazinocarbonyl)-7-oxo-1,6-diaza-bicyclo[3.2.1]oct-6-yl]ester]
- IC50 [2]: 1910 nM
- IC50 [1]: 38 nM
- MIC [3, 7]: 0.5 µg/mL (≈ 1.06 µM)
- MIC [4, 8]: 1 µg/mL (≈ 2.12 µM)
- IC50 [5]: 712 nM
- MIC [6, 9]: 0.5 µg/mL (≈ 1.06 µM)

Compound: CNCCOc1ccccc1CC(=O)NNC(=O)[C@@H]1CC[C@@H]2CN1C(=O)N2OS(=O)(=O)O [Example 36, (2S,5R)-sulfuric acid mono-[2-(N′-{2-[2-(2-N-methylamino-ethoxy)-phenyl]-acetyl}-hydrazinocarbonyl)-7-oxo-1,6-diaza-bicyclo[3.2.1]oct-6-yl]ester]
- IC50 [2]: 2170 nM
- MIC [3, 10]: 1 µg/mL (≈ 2.12 µM)
- MIC [4, 11]: 2 µg/mL (≈ 4.24 µM)
- IC50 [5]: 71 nM
- MIC [6, 12]: 1 µg/mL (≈ 2.12 µM)

Compound: CNCCOc1cccc(CC(=O)NNC(=O)[C@@H]2CC[C@@H]3CN2C(=O)N3OS(=O)(=O)O)c1 [Example 37, (2S,5R)-sulfuric acid mono-[2-(N′-{2-[3-(2-N-methylamino-ethoxy)-phenyl]-acetyl}-hydrazinocarbonyl)-7-oxo-1,6-diaza-bicyclo[3.2.1]oct-6-yl]ester]
- IC50 [2]: 938 nM
- MIC [3, 10]: 0.5 µg/mL (≈ 1.06 µM)
- MIC [4, 11]: 1 µg/mL (≈ 2.12 µM)
- IC50 [5]: 36 nM
- MIC [6, 12]: 0.5 µg/mL (≈ 1.06 µM)

Compound: O=C(Cc1ccc(O[C@H]2CCNC2)cc1)NNC(=O)[C@@H]1CC[C@@H]2CN1C(=O)N2OS(=O)(=O)O [Example 64]
- IC50 [2]: 432 nM
- MIC [3, 7]: 0.5 µg/mL (≈ 1.03 µM)
- MIC [4, 8]: 1 µg/mL (≈ 2.07 µM)
- IC50 [5]: 47 nM
- MIC [6, 9]: 0.5 µg/mL (≈ 1.03 µM)

Compound: sodium salt of (2S,5R)-succinic acid tert-butyl ester 4-{2-oxo-2-[N′-(7-oxo-6-sulphooxy-1,6-diaza-bicyclo[3.2.1]octane-2-carbonyl)-hydrazino]ethyl}-phenyl ester [Example 27]
- IC50 [2]: 498 nM
- IC50 [1]: 14 nM
- MIC [3, 13]: 2 µg/mL
- MIC [6, 14]: 8 µg/mL

Compound: sodium salt of (2S,5R)-sulfuric acid mono-[2-(N′-(3,3-diphenyl-propionyl)-hydrazinocarbonyl)-7-oxo-1,6-diaza-bicyclo[3.2.1]oct-6-yl]ester [Example 7]
- IC50 [2]: 89 nM
- IC50 [1]: 14 nM
- MIC [3, 13]: >32 µg/mL
- MIC ([4]; Table 2, K. pneumoniae H521 (KPC, SHV, TEM)): >32 µg/mL
- MIC [6, 14]: >32 µg/mL
